Source: publication PMC9897788, “Design, synthesis and cytotoxic evaluation of novel bis-thiazole derivatives as preferential Pim1 kinase inhibitors with in vivo and in silico study” (Journal of Enzyme Inhibition and Medicinal Chemistry, 2023)

Legend:
Assay in all cases: NCI 60 cell one-dose screening (SRB)
Format in all cases: cell-based
786-0 = conditions: Homo sapiens; 786-0, Renal Cancer; single dose 10 µM, 48 h; read-out: Percentage of cellular growth inhibition
In short: (§1)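 Single 10 µM final dose, 48 h at 37 °C in RPMI 1640 with 5% FBS, cells plated 24 h before dosing. TCA fixation (10% adherent, 16% suspension), SRB staining, absorbance at 515 nm. Growth percentage versus no-drug control with time-zero correction, reported as inhibition % (100 minus growth).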

DU-145 = conditions: Homo sapiens; DU-145, Prostate Cancer; single dose 10 µM, 48 h; read-out: Percentage of cellular growth inhibition
In short: as §1

HCT-15 = conditions: Homo sapiens; HCT-15, Colon Cancer; single dose 10 µM, 48 h; read-out: Percentage of cellular growth inhibition
In short: as §1

HL-60(TB) = conditions: Homo sapiens, Leukemia, single dose 10 µM, 48 h, read-out: Percentage of cellular growth inhibition
In short: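 Inhibition percentages derive from SRB-stained cell mass: growth relative to no-drug wells, computed as (Ti−Tz)/(C−Tz)×100, or (Ti−Tz)/Tz×100 when Ti<Tz, then subtracted from 100. Compound level was 10 µM for 48 h in RPMI 1640 medium with 5% serum.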

HOP-62 = conditions: Homo sapiens; HOP-62, Non-Small Cell Lung Cancer; single dose 10 µM, 48 h; read-out: Percentage of cellular growth inhibition
In short: as §1

HOP-92 = conditions: Homo sapiens, HOP-92, 48 h, HOP-92, Non-Small Cell Lung Cancer, single dose 10 µM, read-out: Percentage of cellular growth inhibition
In short: as §1

IGROV1 = conditions: Homo sapiens, IGROV-1; IGROV1, Ovarian Cancer; single dose 10 µM, 48 h; read-out: Percentage of cellular growth inhibition
In short: as §1

KM12 = conditions: Homo sapiens; KM12, Colon Cancer; single dose 10 µM, 48 h; read-out: Percentage of cellular growth inhibition
In short: as §1

MCF7 = conditions: Homo sapiens; MCF7, Breast Cancer; single dose 10 µM, 48 h; read-out: Percentage of cellular growth inhibition
In short: as §1

MDA-MB-231/ATCC = conditions: Homo sapiens, Breast Cancer, single dose 10 µM, 48 h, read-out: Percentage of cellular growth inhibition
In short: as §1

NCI-H226 = conditions: Homo sapiens; NCI-H226, Non-Small Cell Lung Cancer; single dose 10 µM, 48 h; read-out: Percentage of cellular growth inhibition
In short: as §1

NCI-H322M = conditions: Homo sapiens, Non-Small Cell Lung Cancer, single dose 10 µM, 48 h, read-out: Percentage of cellular growth inhibition
In short: as §1

NCI/ADR-RES = conditions: Homo sapiens, Ovarian Cancer, single dose 10 µM, 48 h, read-out: Percentage of cellular growth inhibition
In short: as §1

OVCAR-5 = conditions: Homo sapiens; OVCAR-5, Ovarian Cancer; single dose 10 µM, 48 h; read-out: Percentage of cellular growth inhibition
In short: as §1

RPMI-8226 = conditions: Homo sapiens; RPMI-8226, Leukemia; single dose 10 µM, 48 h; read-out: Percentage of cellular growth inhibition
In short: as §1

RXF 393 = conditions: Homo sapiens; RXF 393, Renal Cancer; single dose 10 µM, 48 h; read-out: Percentage of cellular growth inhibition
In short: as §1

SNB-19 = conditions: Homo sapiens; SNB-19, CNS Cancer; single dose 10 µM, 48 h; read-out: Percentage of cellular growth inhibition
In short: as §1

TK-10 = conditions: Homo sapiens; TK-10, Renal Cancer; single dose 10 µM, 48 h; read-out: Percentage of cellular growth inhibition
In short: as §1

UACC-62 = conditions: Homo sapiens; UACC-62, Melanoma; single dose 10 µM, 48 h; read-out: Percentage of cellular growth inhibition
In short: as §1

UO-31 = conditions: Homo sapiens; UO-31, Renal Cancer; single dose 10 µM, 48 h; read-out: Percentage of cellular growth inhibition
In short: as §1

Row | SMILES | inhibition at 10 µM (786-0) [%] | inhibition at 10 µM (DU-145) [%] | inhibition at 10 µM (HCT-15) [%] | inhibition at 10 µM (HL-60(TB)) [%] | inhibition at 10 µM (HOP-62) [%] | inhibition at 10 µM (HOP-92) [%] | inhibition at 10 µM (IGROV1) [%] | inhibition at 10 µM (KM12) [%] | inhibition at 10 µM (MCF7) [%] | inhibition at 10 µM (MDA-MB-231/ATCC) [%] | inhibition at 10 µM (NCI-H226) [%] | inhibition at 10 µM (NCI-H322M) [%] | inhibition at 10 µM (NCI/ADR-RES) [%] | inhibition at 10 µM (OVCAR-5) [%] | inhibition at 10 µM (RPMI-8226) [%] | inhibition at 10 µM (RXF 393) [%] | inhibition at 10 µM (SNB-19) [%] | inhibition at 10 µM (TK-10) [%] | inhibition at 10 µM (UACC-62) [%] | inhibition at 10 µM (UO-31) [%]
1 | Cc1csc(Nc2cccc(Nc3nc(C)cs3)c2)n1 [3a, N^1,N^3-bis(4-methylthiazol-2-yl)benzene-1,3-diamine] | -10.8 | 10.2 | 7.3 | 18.2 | 3.5 | 41.2 | 7.9 | 5.2 | 21.9 | 21.2 | 24.2 | 4.9 | 20.1 | 7.1 | 11.8 | 4.8 | 1 | -35 | 22.3 | 15.7
2 | CC(=O)c1sc(Nc2cccc(Nc3nc(C)c(C(C)=O)s3)c2)nc1C [3b, 1,1’-(2,2’-(1,3-Phenylenebis(azanediyl))bis(4-methylthiazole-5,2-diyl))diethanone] | 44.3 | 54.6 | 55.1 | 65.8 | 22.2 | 36.4 | 73.6 | 39.8 | 38.3 | 19.3 | 34.6 | 38.3 | 44.4 | 16.5 | 32.1 | 53 | 9.1 | 46.4 | 51.2 | 67.8
3 | CCOC(=O)c1sc(Nc2cccc(Nc3nc(C)c(C(=O)OCC)s3)c2)nc1C [3c, Diethyl 2,2’-(1,3-phenylenebis(azanediyl))bis(4-methylthiazole-5-carboxylate)] | 5.5 | 16.2 | 20.9 | 22.7 | 1.2 | 47.8 | 23.4 | 12.2 | 26.7 | 20.8 | 15 | 3.8 | 33.1 | 8 | 37.7 | 9 | 17.7 | -0.8 | 33.1 | 32.9
4 | Cc1nc(Nc2cccc(Nc3nc(C)c(N=Nc4ccccc4)s3)c2)sc1N=Nc1ccccc1 [5a, N^1,N^3-bis(4-methyl-5-(phenyldiazenyl)thiazol-2-yl)benzene-1,3-diamine] | 18.7 | 16.6 | 21 | 5.5 | 9.3 | -4 | 52.2 | 52.1 | 52.4 | 35.1 | 33 | 22.8 | 10.2 | 19.8 | -9.4 | -4.4 | 42.6 | 2.9 | 30.9 | 69.7
5 | CCOc1ccc(/N=N/c2sc(Nc3cccc(Nc4nc(C)c(/N=N/c5ccc(OCC)cc5)s4)c3)nc2C)cc1 [5b, N^1,N^3-bis(5-((4-ethoxyphenyl)diazinyl)-4-methylthiazol-2-yl)benzene-1,3-diamine] | 6.6 | -3.9 | 8.4 | 8.9 | -1.3 | 25.1 | 9.7 | -0.8 | 10.6 | 6.7 | 14.8 | 11.4 | 1.5 | 9 | -7.2 | 1 | 11.5 | -0.2 | 20.5 | 12.4
6 | c1ccc(-c2csc(Nc3cccc(Nc4nc(-c5ccccc5)cs4)c3)n2)cc1 [6a, N^1,N^3-bis(4-phenylthiazol-2-yl)benzene-1,3-diamine] | 49.6 | 41.1 | 69.5 | 34.1 | 27 | 56.3 | 65.9 | 98.9 | 84.4 | 52 | 33.8 | 41.9 | 73.9 | 35.5 | 50.7 | 36.2 | 42 | 31.4 | 49.7 | 67.7
7 | Fc1ccc(-c2csc(Nc3cccc(Nc4nc(-c5ccc(F)cc5)cs4)c3)n2)cc1 [6b, N^1,N^3-bis(4–(4-fluorophenyl)thiazol-2-yl)benzene-1,3-diamine] | 31.2 | 32.3 | 47.5 | 25.7 | 27.3 | 60.8 | 58.2 | 62.4 | 75.3 | 35.4 | 48.5 | 39.9 | 36.3 | 34.5 | 50.5 | 24.5 | 29.8 | 5.5 | 42.9 | 68.7
8 | Clc1ccc(-c2csc(Nc3cccc(Nc4nc(-c5ccc(Cl)cc5)cs4)c3)n2)cc1 [6c, N^1,N^3-bis(4–(4-chlorophenyl)thiazol-2-yl)benzene-1,3-diamine] | 29.2 | -1.8 | 7.1 | 14.6 | 17.7 | 59.5 | 9 | -1.4 | 9.8 | 24.9 | 27.2 | 5 | 4.6 | 9.6 | 14.8 | 16.7 | 11.5 | 1.4 | 17.4 | 21.6
9 | c1ccc(/N=c2\scc(-c3ccccc3)n2-c2cccc(-n3c(-c4ccccc4)cs/c3=N\c3ccccc3)c2)cc1 [8a, N,N’-(3,3’-(1,3-phenylene)bis(4-phenylthiazole-3(3H)-yl-2(3H)-ylidene))dianiline] | -11.1 | -3.2 | -4.7 | -4.4 | -12.6 | 14.5 | -6.1 | 1.1 | 18 | -4.1 | 17 | 1.8 | -5 | -2.9 | -0.5 | 10.3 | -5.9 | -38.8 | 20.3 | 25.4
